{"source": "paper PMC2063170", "about": "“A phase I clinical and pharmacokinetic study of the new topoisomerase inhibitor GI147211 given as a 72-h continuous infusion” (British Journal of Cancer, 1998)", "origin": "cited, not measured here", "parameters": "method as in Burris et al. 1994", "details": "ref Burris et al. 1994, cited from earlier work"}
{"smiles": "CC[C@@]1(O)C(=O)OCc2c1cc1n(c2=O)Cc2cc3c(CN(C)C)c(O)ccc3nc2-1", "note": "[topotecan]", "values": [{"measurement": "MTD", "setting": "continuous infusion for 3 days every 3 weeks", "value": 1.6, "unit": "mg m-2 day-1"}, {"measurement": "Css of lactone at MTD", "setting": "plasma, 1.6 mg m-2 day-1 continuous infusion for 3 days every 3 weeks", "value": 5.5, "unit": "ng/mL"}]}
